Experiments:
Assay type in all cases: in vivo
[1] = test system: Diabrotica Balteata (Corn Root Worm); experiment: Activity against Diabrotica balteata (corn root worm), sprayed maize sprouts on agar; conditions: 96 h, application rate 200 ppm, L2 larvae, 4 days after infestation, in comparison to untreated samples, read-out: effect in at least one of the two categories (mortality or growth inhibition)
Description: Example B2: Activity Against Diabrotica Balteata (Corn Root Worm)
Maize sprouts placed onto an agar layer in 24-well microtiter plates were treated with aqueous test solutions prepared from 10′000 ppm DMSO stock solutions by spraying. After drying, the plates were infested with L2 larvae (6 to 10 per well). The samples were assessed for mortality and growth inhibition in comparison to untreated samples 4 days after infestation.

[2] = test system: Spodoptera littoralis (Egyptian Cotton Leaf Worm); experiment: Activity against Spodoptera littoralis (Egyptian cotton leaf worm), sprayed cotton leaf discs; conditions: foliar, 72 h, application rate 200 ppm, five L1 larvae, 3 days after infestation, in comparison to untreated samples, read-out: control (at least one of mortality, anti-feedant effect, growth inhibition)
Description: Example B7: Activity Against Spodoptera littoralis (Egyptian Cotton Leaf Worm)
Cotton leaf discs were placed onto agar in 24-well microtiter plates and sprayed with aqueous test solutions prepared from 10′000 ppm DMSO stock solutions. After drying the leaf discs were infested with five L1 larvae. The samples were assessed for mortality, anti-feeding effect, and growth inhibition in comparison to untreated samples 3 days after infestation. Control of Spodoptera littoralis by a test sample is given when at least one of the categories mortality, anti-feedant effect, and growth inhibition is higher than the untreated sample.

[3] = test system: Plutella xylostella (Diamond Back Moth); experiment: Activity against Plutella xylostella (diamond back moth), artificial diet in 24-well microtiter plates; conditions: 192 h, application rate 200 ppm, eggs, 8 days after infestation, in comparison to untreated samples, read-out: effect in at least one of the two categories (mortality or growth inhibition)
Description: Example B6: Activity Against Plutella xylostella (Diamond Back Moth)
24-well microtiter plates with artificial diet were treated with aqueous test solutions prepared from 10′000 ppm DMSO stock solutions by pipetting. After drying, Plutella eggs were pipetted through a plastic stencil onto a gel blotting paper and the plate was closed with it. The samples were assessed for mortality and growth inhibition in comparison to untreated samples 8 days after infestation. The following compounds gave an effect of at least 80% in at least one of the two categories (mortality or growth inhibition) at an application rate of 200 ppm: P2, P3, P4, P5, P7, P9, P10, P11, P13, P14, P15.

[4] = test system: Myzus persicae (Green Peach Aphid); experiment: Activity against Myzus persicae (green peach aphid), feeding/contact activity, sunflower leaf discs; conditions: foliar, 144 h, application rate 200 ppm, aphid population of mixed ages, 6 days after infestation
Description: Example B4: Activity Against Myzus persicae (Green Peach Aphid) Feeding/Contact Activity
Sunflower leaf discs were placed onto agar in a 24-well microtiter plate and sprayed with aqueous test solutions prepared from 10′000 ppm DMSO stock solutions. After drying, the leaf discs were infested with an aphid population of mixed ages. The samples were assessed for mortality 6 days after infestation.

[5] = test system: Chilo suppressalis (Striped Rice Stemborer); experiment: Activity against Chilo suppressalis (striped rice stemborer), artificial diet in 24-well microtiter plates; conditions: 144 h, application rate 200 ppm, L2 larvae, 6 days after infestation, in comparison to untreated samples, read-out: control (at least one of mortality, anti-feedant effect, growth inhibition)
Description: Example B1: Activity Against Chilo suppressalis (Striped Rice Stemborer)
24-well microtiter plates with artificial diet were treated with aqueous test solutions prepared from 10′000 ppm DMSO stock solutions by pipetting. After drying, the plates were infested with L2 larvae (6-8 per well). The samples were assessed for mortality, anti-feeding effect, and growth inhibition in comparison to untreated samples 6 days after infestation. Control of Chilo suppressalis by a test sample is given when at least one of the categories mortality, anti-feedant effect, and growth inhibition is higher than the untreated sample.

[6] = test system: Euschistus heros (Neotropical Brown Stink Bug); experiment: Activity against Euschistus heros (neotropical brown stink bug), sprayed soybean leaves on agar; conditions: 120 h, application rate 200 ppm, N2 nymphs, 5 days after infestation, in comparison to untreated samples, read-out: effect in at least one of the two categories (mortality or growth inhibition)
Description: Example B3: Activity Against Euschistus heros (Neotropical Brown Stink Bug)
Soybean leaves on agar in 24-well microtiter plates were sprayed with aqueous test solutions prepared from 10′000 ppm DMSO stock solutions. After drying the leaves were infested with N2 nymphs. The samples were assessed for mortality and growth inhibition in comparison to untreated samples 5 days after infestation.

[7] = test system: Myzus persicae (Green Peach Aphid); experiment: Activity against Myzus persicae (green peach aphid), systemic activity, pea seedling roots in test solution; conditions: 144 h, test rate 24 ppm, aphid population of mixed ages, 6 days after placing seedlings into test solutions
Description: Example B5: Activity Against Myzus persicae (Green Peach Aphid) Systemic Activity
Roots of pea seedlings infested with an aphid population of mixed ages were placed directly into aqueous test solutions prepared from 10′000 DMSO stock solutions. The samples were assessed for mortality 6 days after placing seedlings into test solutions.

CCS(=O)(=O)c1ccc(C2CC2)nc1-c1coc2cc(C(F)(F)F)ccc2c1=O [P10, 3-(6-cyclopropyl-3-ethylsulfonyl-2-pyridyl)-7-(trifluoromethyl) chromen-4-one]
≥ 80%: percent control (mortality or growth inhibition) at 200 ppm [1] | percent control (mortality, anti-feedant effect or growth inhibition) at 200 ppm [2] | effect (mortality or growth inhibition) at 200 ppm [3] | mortality at 200 ppm [4] | percent control (mortality, anti-feedant effect or growth inhibition) at 200 ppm [5]

CCS(=O)(=O)c1cc(C2(C#N)CC2)cnc1-c1coc2cc(OC(F)(F)F)ccc2c1=O [P15, 1-[5-ethylsulfonyl-6-[4-oxo-7-(trifluoromethoxy)chromen-3-yl]-3-pyridyl]-cyclopropane-carbonitrile]
≥ 80%: percent control (mortality or growth inhibition) at 200 ppm [1] | percent control (mortality, anti-feedant effect or growth inhibition) at 200 ppm [2] | effect (mortality or growth inhibition) at 200 ppm [3] | mortality at 200 ppm [4] | percent control (mortality, anti-feedant effect or growth inhibition) at 200 ppm [5] | percent control (mortality or growth inhibition) at 200 ppm [6]

CCS(=O)(=O)c1cc(C2(C#N)CC2)cnc1-c1coc2cc(C(F)(F)F)ccc2c1=O [P4, 1-[5-ethylsulfonyl-6-[4-oxo-7-(trifluoromethyl)chromen-3-yl]-3-pyridyl]cyclopropane-carbonitrile]
≥ 80%: percent control (mortality or growth inhibition) at 200 ppm [1] | percent control (mortality, anti-feedant effect or growth inhibition) at 200 ppm [2] | effect (mortality or growth inhibition) at 200 ppm [3] | mortality at 24 ppm [7] | mortality at 200 ppm [4] | percent control (mortality, anti-feedant effect or growth inhibition) at 200 ppm [5] | percent control (mortality or growth inhibition) at 200 ppm [6]

CCS(=O)(=O)c1cc(Br)cnc1-c1c(C)oc2cc(C(F)(F)F)ccc2c1=O [P8, 3-(5-bromo-3-ethylsulfonyl-2-pyridyl)-2-methyl-7-(trifluoromethyl) chromen-4-one]
≥ 80%: percent control (mortality, anti-feedant effect or growth inhibition) at 200 ppm [2] | percent control (mortality, anti-feedant effect or growth inhibition) at 200 ppm [5]

CCS(=O)(=O)c1cc(Br)cnc1-c1coc2cc(C(F)(F)F)ccc2c1=O [P9, 3-(5-bromo-3-ethylsulfonyl-2-pyridyl)-7-(trifluoromethyl)-chromen-4-one]
≥ 80%: percent control (mortality or growth inhibition) at 200 ppm [1] | percent control (mortality, anti-feedant effect or growth inhibition) at 200 ppm [2] | effect (mortality or growth inhibition) at 200 ppm [3] | percent control (mortality, anti-feedant effect or growth inhibition) at 200 ppm [5]

CCS(=O)(=O)c1cc(C(C)(C)C#N)cnc1-c1coc2cc(C(F)(F)F)ccc2c1=O [P5, 2-[5-ethylsulfonyl-6-[4-oxo-7-(trifluoromethyl)chromen-3-yl]-3-pyridyl]-2-methyl-propane-nitrile]
≥ 80%: percent control (mortality or growth inhibition) at 200 ppm [1] | percent control (mortality, anti-feedant effect or growth inhibition) at 200 ppm [2] | effect (mortality or growth inhibition) at 200 ppm [3] | mortality at 24 ppm [7] | mortality at 200 ppm [4] | percent control (mortality, anti-feedant effect or growth inhibition) at 200 ppm [5] | percent control (mortality or growth inhibition) at 200 ppm [6]

CCSc1cc(C2(C#N)CC2)cnc1-c1coc2cc(C(F)(F)F)ccc2c1=O [P3, 1-[5-ethylsulfanyl-6-[4-oxo-7-(trifluoromethyl)chromen-3-yl]-3-pyridyl]cyclopropane-carbonitrile]
≥ 80%: percent control (mortality or growth inhibition) at 200 ppm [1] | percent control (mortality, anti-feedant effect or growth inhibition) at 200 ppm [2] | effect (mortality or growth inhibition) at 200 ppm [3] | mortality at 200 ppm [4] | percent control (mortality or growth inhibition) at 200 ppm [6]

CCS(=O)(=O)c1cc(-c2ccc(F)cc2)cnc1-c1coc2cc(C(F)(F)F)ccc2c1=O [P16, 3-[3-ethylsulfonyl-5-(4-fluorophenyl)-2-pyridyl]-7-(trifluoromethyl)chromen-4-one]
≥ 80%: percent control (mortality, anti-feedant effect or growth inhibition) at 200 ppm [2]

CCS(=O)(=O)c1cc(C2(C#N)CC2)cnc1-c1c(C)oc2cc(C(F)(F)F)ccc2c1=O [P7, 1-[5-ethylsulfonyl-6-[2-methyl-4-oxo-7-(trifluoromethyl)chromen-3-yl]-3-pyridyl] cyclopropane-carbonitrile]
≥ 80%: percent control (mortality or growth inhibition) at 200 ppm [1] | percent control (mortality, anti-feedant effect or growth inhibition) at 200 ppm [2] | effect (mortality or growth inhibition) at 200 ppm [3] | mortality at 24 ppm [7] | mortality at 200 ppm [4] | percent control (mortality, anti-feedant effect or growth inhibition) at 200 ppm [5] | percent control (mortality or growth inhibition) at 200 ppm [6]

CCS(=O)(=O)c1cc(C2(C#N)CC2)cnc1-c1cn(C)c2cc(C(F)(F)F)ccc2c1=O [P14, 1-[5-ethylsulfonyl-6-[1-methyl-4-oxo-7-(trifluoromethyl)-3-quinolyl]-3-pyridyl]-cyclo-propanecarbonitrile]
≥ 80%: percent control (mortality or growth inhibition) at 200 ppm [1] | percent control (mortality, anti-feedant effect or growth inhibition) at 200 ppm [2] | effect (mortality or growth inhibition) at 200 ppm [3] | mortality at 24 ppm [7] | mortality at 200 ppm [4] | percent control (mortality, anti-feedant effect or growth inhibition) at 200 ppm [5] | percent control (mortality or growth inhibition) at 200 ppm [6]

CCS(=O)(=O)c1cc(C2CC2)cnc1-c1coc2cc(C(F)(F)F)ccc2c1=O [P11, 3-(5-cyclopropyl-3-ethylsulfonyl-2-pyridyl)-7-(trifluoromethyl) chromen-4-one]
≥ 80%: percent control (mortality or growth inhibition) at 200 ppm [1] | percent control (mortality, anti-feedant effect or growth inhibition) at 200 ppm [2] | effect (mortality or growth inhibition) at 200 ppm [3] | mortality at 24 ppm [7] | mortality at 200 ppm [4] | percent control (mortality, anti-feedant effect or growth inhibition) at 200 ppm [5] | percent control (mortality or growth inhibition) at 200 ppm [6]

CCS(=O)(=O)c1cccnc1-c1coc2cc(C(F)(F)F)ccc2c1=O [P2, 3-(3-ethylsulfonyl-2-pyridyl)-7-(trifluoromethyl)chromen-4-one]
≥ 80%: percent control (mortality or growth inhibition) at 200 ppm [1] | percent control (mortality, anti-feedant effect or growth inhibition) at 200 ppm [2] | effect (mortality or growth inhibition) at 200 ppm [3] | mortality at 24 ppm [7] | mortality at 200 ppm [4] | percent control (mortality, anti-feedant effect or growth inhibition) at 200 ppm [5] | percent control (mortality or growth inhibition) at 200 ppm [6]

CCS(=O)(=O)c1cc(C2(C#N)CC2)cnc1-c1coc2cc(OC(F)F)ccc2c1=O [P13, 1-[6-[7-(difluoromethoxy)-4-oxo-chromen-3-yl]-5-ethylsulfonyl-3-pyridyl]-cyclo-propanecarbonitrile]
≥ 80%: percent control (mortality or growth inhibition) at 200 ppm [1] | percent control (mortality, anti-feedant effect or growth inhibition) at 200 ppm [2] | effect (mortality or growth inhibition) at 200 ppm [3] | mortality at 24 ppm [7] | mortality at 200 ppm [4] | percent control (mortality, anti-feedant effect or growth inhibition) at 200 ppm [5] | percent control (mortality or growth inhibition) at 200 ppm [6]
